Experimental data published in US20250223268A1, “4-Methylsulfonylbenzamide Compound, Preparation Method, Herbicidal Composition And Use” (Jiangsu Flag Chemical Industry Co., Ltd., priority 2022, published 2025).

What was measured:
Assay type in all cases: in vivo
[1] = system: Echinochloa crusgalli; test: Greenhouse herbicidal activity and crop safety comparison (Test Example 2); details: Rate 150 g/ha
In short: (§1)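 Fresh weight inhibition, banded into grades A to E (E <20%), was rated 14-21 days after foliar spraying of 3-6 leaf plants, or 14-30 days after a soil spray applied 24 h post-sowing.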

[2] = system: Leptochloa chinensis; test: as above; details: Rate 150 g/ha
In short: as §1

[3] = system: Oryza sativa subsp. indica; test: as above; details: Rate 150 g/ha
In short: as §1

[4] = system: Oryza sativa subsp. japonica; test: as above; details: Rate 150 g/ha
In short: as §1

[5] = system: Cyperus iria; test: Greenhouse herbicidal activity assay, post-emergence; details: Post-emergence test, rate 150 g a.i./hm^2; grade by fresh weight inhibition rate
In short: (§2)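 Weeds were sown in nutrient soil in 7 cm pots and grown in a growth chamber to the 3-6 leaf stage, then foliar-sprayed, air-dried and returned to the chamber. Fresh weight inhibition was scored 14-21 days later in bands from A (≥80% to 100%) to E (<20%).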

[6] = system: Digitaria sanguinalis; test: as above; details: Post-emergence test, rate 150 g a.i./hm^2; grade by fresh weight inhibition rate
In short: as §2

[7] = system: Echinochloa crusgalli; test: as above; details: Post-emergence test, rate 150 g a.i./hm^2; grade by fresh weight inhibition rate
In short: as §2

[8] = system: Eclipta prostrata; test: as above; details: Post-emergence test, rate 150 g a.i./hm^2; grade by fresh weight inhibition rate
In short: as §2

[9] = system: Leptochloa chinensis; test: as above; details: Post-emergence test, rate 150 g a.i./hm^2; grade by fresh weight inhibition rate
In short: as §2

| SMILES | Echinochloa crusgalli, control efficacy grading (fresh weight inhibition rate) [1] | Leptochloa chinensis, control efficacy grading (fresh weight inhibition rate) [2] | Oryza sativa subsp. indica, grading of fresh weight inhibition rate (crop safety) [3] | Oryza sativa subsp. japonica, grading of fresh weight inhibition rate (crop safety) [4] | Control efficacy grade, Cyperus iria [5] | Control efficacy grade, Digitaria sanguinalis [6] | Control efficacy grade, Echinochloa crusgalli [7] | Control efficacy grade, Eclipta prostrata [8] | Control efficacy grade, Leptochloa chinensis [9] |
| --- | --- | --- | --- | --- | --- | --- | --- | --- | --- |
| CCC(C)S(=O)(=O)c1c(S(C)(=O)=O)ccc(C(=O)Nc2nnc(C)o2)c1Cl (racemic) [Compound 3-24] | A (Fresh weight inhibition rate≥80% to 100%) | A (Fresh weight inhibition rate≥80% to 100%) | E (Fresh weight inhibition rate<20%) | E (Fresh weight inhibition rate<20%) | A (Fresh weight inhibition rate≥80% to 100%) | A (Fresh weight inhibition rate≥80% to 100%) | A (Fresh weight inhibition rate≥80% to 100%) | A (Fresh weight inhibition rate≥80% to 100%) | A (Fresh weight inhibition rate≥80% to 100%) |
| Cc1nnc(NC(=O)c2ccc(S(C)(=O)=O)c(S(=O)(=O)Cc3ccccc3)c2Cl)o1 [Compound 3-71] | C (Fresh weight inhibition rate≥40% to <60%) | A (Fresh weight inhibition rate≥80% to 100%) | E (Fresh weight inhibition rate<20%) | E (Fresh weight inhibition rate<20%) | A (Fresh weight inhibition rate≥80% to 100%) |  |  | A (Fresh weight inhibition rate≥80% to 100%) | A (Fresh weight inhibition rate≥80% to 100%) |
| Cc1nnc(NC(=O)c2ccc(S(C)(=O)=O)c(S(=O)(=O)C3CCCCC3)c2Cl)o1 [Compound 3-96] | C (Fresh weight inhibition rate≥40% to <60%) | A (Fresh weight inhibition rate≥80% to 100%) | E (Fresh weight inhibition rate<20%) | E (Fresh weight inhibition rate<20%) | A (Fresh weight inhibition rate≥80% to 100%) |  |  | A (Fresh weight inhibition rate≥80% to 100%) | A (Fresh weight inhibition rate≥80% to 100%) |
| C#CCS(=O)(=O)c1c(S(C)(=O)=O)ccc(C(=O)Nc2nnc(C)o2)c1Cl [Compound 3-151] |  | A (Fresh weight inhibition rate≥80% to 100%) | E (Fresh weight inhibition rate<20%) | E (Fresh weight inhibition rate<20%) | A (Fresh weight inhibition rate≥80% to 100%) | B (Fresh weight inhibition rate≥260% to <80%) | B (Fresh weight inhibition rate≥260% to <80%) | A (Fresh weight inhibition rate≥80% to 100%) | A (Fresh weight inhibition rate≥80% to 100%) |
| Cc1nnc(NC(=O)c2ccc(S(C)(=O)=O)c(S(=O)(=O)CCC#N)c2Cl)o1 [Compound 3-201] | C (Fresh weight inhibition rate≥40% to <60%) | A (Fresh weight inhibition rate≥80% to 100%) | E (Fresh weight inhibition rate<20%) | E (Fresh weight inhibition rate<20%) | A (Fresh weight inhibition rate≥80% to 100%) |  |  | A (Fresh weight inhibition rate≥80% to 100%) | A (Fresh weight inhibition rate≥80% to 100%) |
| CCc1nnc(NC(=O)c2ccc(S(C)(=O)=O)c(S(=O)(=O)CC(F)(F)F)c2Cl)o1 [Compound 3-443] | C (Fresh weight inhibition rate≥40% to <60%) | A (Fresh weight inhibition rate≥80% to 100%) | E (Fresh weight inhibition rate<20%) | E (Fresh weight inhibition rate<20%) | A (Fresh weight inhibition rate≥80% to 100%) |  |  | A (Fresh weight inhibition rate≥80% to 100%) | A (Fresh weight inhibition rate≥80% to 100%) |
| CC(C)c1nnc(NC(=O)c2ccc(S(C)(=O)=O)c(S(=O)(=O)CC3CC3)c2Cl)o1 [Compound 3-534] |  | A (Fresh weight inhibition rate≥80% to 100%) | E (Fresh weight inhibition rate<20%) | E (Fresh weight inhibition rate<20%) | A (Fresh weight inhibition rate≥80% to 100%) | B (Fresh weight inhibition rate≥260% to <80%) | B (Fresh weight inhibition rate≥260% to <80%) | A (Fresh weight inhibition rate≥80% to 100%) | B (Fresh weight inhibition rate≥260% to <80%) |
| CC(C)c1nnc(NC(=O)c2ccc(S(C)(=O)=O)c(S(=O)(=O)C3CC3)c2Cl)o1 [Compound 3-539] |  | A (Fresh weight inhibition rate≥80% to 100%) | E (Fresh weight inhibition rate<20%) | E (Fresh weight inhibition rate<20%) | B (Fresh weight inhibition rate≥260% to <80%) | B (Fresh weight inhibition rate≥260% to <80%) | B (Fresh weight inhibition rate≥260% to <80%) |  | A (Fresh weight inhibition rate≥80% to 100%) |
| CC(C)c1nnc(NC(=O)c2ccc(S(C)(=O)=O)c(S(=O)(=O)C3CCC3)c2Cl)o1 [Compound 3-544] |  | A (Fresh weight inhibition rate≥80% to 100%) | E (Fresh weight inhibition rate<20%) | E (Fresh weight inhibition rate<20%) | A (Fresh weight inhibition rate≥80% to 100%) |  | B (Fresh weight inhibition rate≥260% to <80%) | A (Fresh weight inhibition rate≥80% to 100%) | A (Fresh weight inhibition rate≥80% to 100%) |
| CS(=O)(=O)c1ccc(C(=O)Nc2nnc(C3CC3)o2)c(Cl)c1S(=O)(=O)CC1CC1 [Compound 3-650] |  | B (Fresh weight inhibition rate≥260% to <80%) | E (Fresh weight inhibition rate<20%) | E (Fresh weight inhibition rate<20%) | A (Fresh weight inhibition rate≥80% to 100%) | A (Fresh weight inhibition rate≥80% to 100%) | B (Fresh weight inhibition rate≥260% to <80%) | A (Fresh weight inhibition rate≥80% to 100%) | A (Fresh weight inhibition rate≥80% to 100%) |
| CS(=O)(=O)c1ccc(C(=O)Nc2nnc(C3CC3)o2)c(Cl)c1S(=O)(=O)C1CCC1 [Compound 3-660] | C (Fresh weight inhibition rate≥40% to <60%) | A (Fresh weight inhibition rate≥80% to 100%) | E (Fresh weight inhibition rate<20%) | E (Fresh weight inhibition rate<20%) | A (Fresh weight inhibition rate≥80% to 100%) |  |  | A (Fresh weight inhibition rate≥80% to 100%) | A (Fresh weight inhibition rate≥80% to 100%) |
